{
  "source": "patent US9168212B2",
  "about": "“Composition for eyelash growth” (SK CHEMICALS CO., LTD., priority 2011, dated 2015)",
  "key": {"[1]": {"tested_on": "eyelashes", "assay": "In vivo evaluation related to eyelash growth (two weeks local administration)", "design": "species or system mouse", "experimental": "(§1) Analysis was conducted immediately after the eyelashes were collected. Using a high-performance microscope with computer-assisted eyelid thickness focus fixation and an image analysis software capable of measuring the number, thickness and length of eyelashes, the eyelashes were measured for the exact number, thickness and length thereof. Numeric data obtained by this method was averaged, and comparative analysis was conducted using prism statistical software."}, "[2]": {"tested_on": "eyelashes", "assay": "Short-term in vivo evaluation related to eyelash growth (one week administration)", "design": "species or system mouse", "experimental": "as §1"}, "[3]": {"details": "female mouse, 2 μl applied to the eyelashes once a day for two weeks, n is 8 for each group"}, "[4]": {"details": "female mouse, 2 μl applied to the eyelashes once a day for one week, n is 6 for each group"}},
  "data": [
    {"smiles": "CCNC(=O)CCC/C=C\\C[C@@H]1[C@@H](/C=C/[C@@H](O)CCc2ccccc2)[C@H](O)C[C@@H]1O", "note": "[bimatoprost]", "values": [
      {"measurement": "statistical significance of increase in number, thickness and length of eyelashes compared to the control group", "setting": "[1]; administered for two weeks, t-test", "result": "statistically significant increase in only two items of number and thickness of eyelashes"},
      {"measurement": "number of eyelashes", "setting": "[1]; [3]", "result": 39.0, "unit": "eyelashes"},
      {"measurement": "number of eyelashes having a length of 1000 μm or more", "setting": "[1]; [3]", "result": 9.5, "unit": "eyelashes"},
      {"measurement": "number of eyelashes having a thickness of 15 μm or more", "setting": "[1]; [3]", "result": 9.5, "unit": "eyelashes"},
      {"measurement": "number of eyelashes", "setting": "[2]; [4]", "result": 37.8, "unit": "eyelashes"},
      {"measurement": "number of eyelashes having a length of 1000 μm or more", "setting": "[2]; [4]", "result": 12.3, "unit": "eyelashes"},
      {"measurement": "number of eyelashes having a thickness of 15 μm or more", "setting": "[2]; [4]", "result": 8.7, "unit": "eyelashes"},
      {"measurement": "statistical significance of increase in number, thickness and length of eyelashes compared to the control group", "setting": "[2]; one week administration, t-test", "result": "statistically significant increase in only one item of eyelash thickness"}
    ]}
  ]
}
